According to patent US20090312414A1, “Treatment Of Lower Urinary Tract Dysfunction With CB2-Receptor-Selective Agonists” (priority 2008, published 2009):

Columns and labels:
CB2 receptor = CB2 receptor (Homo sapiens, UniProt P34972); experiment: CB2 binding assay (displacement of radiolabeled agonist)
conscious normal rats = experiment: Cystometry in normal conscious rats; type: in vivo, rat; settings: for Residual volume (RV): ns
Description: This study involved a determination of the acute effect of the compound of Formula I, a peripherally-selective, CB2-receptor-selective agonist, on normal bladder function in normal conscious freely moving rats using cystometry.
Female Sprague-Dawley rats, weighing 225-300 g, were maintained under standard laboratory conditions with a 12:12 light/dark cycle and free access to food pellets and water. After surgical procedures, rats were individually caged to prevent chewing of the catheters. For surgical procedures, the rats were anesthetized by intraperitoneal injection of 75 mg/kg ketamine (Ketalar®, Pfizer, Sweden) and 15 mg/kg xylazine (Rompun®, Bayer, Sweden).
The bladder was exposed via a mid-line incision of the lower abdomen. A saline-filled polyethylene catheter (PE-50, Clay-Adams, Parsippany, N.J.) with a cuff was inserted into the dome of the bladder and held in place with a purse string suture. The catheter was tunneled subcutaneously and anchored at the neck with a silk ligature, and the free end of the catheter was sealed.
In the same surgical session as for implantation of the bladder catheter, access to the femoral vein was given via the mid-line incision of the lower abdomen after careful blunt dissection of the subcutaneous fascias and the femoral vascular sheath. A stretched PE-50 catheter filled with heparinized saline was introduced into the femoral vein and forwarded with its tip in the iliac vein. The catheter was then secured in position by two ligatures, tunneled subcutaneously to the skin of the back and anchored as described above, and the free end of the catheter was sealed.
The appropriate solution of the compound of Formula I was prepared on the day of the experiment using phosphate-buffered saline (“PBS”) as the vehicle. The compound of Formula I was dissolved to obtain a 10 mg/ml stock solution. For the 3 mg/kg dose, each animal was administered individually weight-controlled amounts in a volume of approximately 100 μl IV of the stock solution. For lower doses, appropriate dilutions of the stock solution were made and animals were administered similar volumes containing 0.3 or 1 mg/kg. […] After administration of the compound of Formula I, 100 μl of heparinized saline was also infused to flush the IV catheter, and a 90 to 120-minute observation period was allowed until final stable micturitions were obtained. Each animal served as its own control.
Cystometry was performed without anesthesia three days after the implantation of bladder catheters in normal rats. The conscious rats were placed in metabolic cages without restraint and the bladder catheters were connected via a T-tube to a pressure transducer (P23 DC; Statham Instruments Inc., Oxnard, Calif.) and a microinjection pump (CMA 100; Carnegie Medicine AB, Solna, Sweden). Micturition volumes were recorded with a fluid collector connected to a force displacement transducer (FT 03 D, Grass Instrument Co., Quincy, Mass.). Room-temperature saline was infused into the bladder continuously at a rate of 10 ml/h. Pressures and micturition volumes were recorded continuously with Acq Knowledge 3.8.1 software and a MP100 data acquisition system (Biopac Syst. Inc. Santa Barbara, Calif.) connected to a Grass polygraph (Model 7E, Grass Instrument Co). At the beginning of cystometry, the bladder was emptied via the bladder catheter.
The following urodynamic parameters were investigated: micturition pressure (“MP;” maximum bladder pressure during micturition), threshold pressure (“ThP”; bladder pressure at start of detrusor contraction), flow pressure (“FP”; bladder pressure when urethra opens), micturition interval (“MI”; time between two micturitions), micturition volume (“MV”; volume of the expelled urine), and residual volume (“RV”; volume left in bladder after a micturition). […]

Chain of CB2 receptor (P34972 whole entry): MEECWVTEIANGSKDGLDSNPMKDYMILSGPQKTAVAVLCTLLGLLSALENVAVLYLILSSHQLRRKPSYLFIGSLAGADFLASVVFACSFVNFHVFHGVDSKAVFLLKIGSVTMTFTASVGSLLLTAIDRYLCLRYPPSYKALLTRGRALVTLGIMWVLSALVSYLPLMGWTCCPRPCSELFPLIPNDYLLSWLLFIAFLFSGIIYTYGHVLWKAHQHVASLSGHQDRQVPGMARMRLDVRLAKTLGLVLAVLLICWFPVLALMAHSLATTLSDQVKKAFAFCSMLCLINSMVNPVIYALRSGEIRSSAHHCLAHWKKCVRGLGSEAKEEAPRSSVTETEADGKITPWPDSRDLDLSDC

**Q.** For `CCCCCCC(C)(C)c1cc(O)c([C@H]2CC(=O)[C@H]3C[C@@H]2C3(C)C)c(OC(=O)/C=C/C(=O)O)c1` [Formula I], which CB2/CB1 affinity ratio (CB2 receptor) is on record?
**A.** 34

**Q.** What about the IC50 (CB2 receptor; displaces 50% of a radiolabeled agonist) of the same compound?
**A.** 19.4 nM

**Q.** And the “Basal pressure (BP)” value (conscious normal rats; 0.3 mg/kg IV)?
**A.** 4.7±2.0 cmH2O

**Q.** What about the “Micturition pressure (MP)” value (conscious normal rats; 0.3 mg/kg IV) of the same compound?
**A.** 64.3±12.3 cmH2O

**Q.** What about the “Rats responding with increased MI” value (conscious normal rats; 0.3 mg/kg IV) of the same compound?
**A.** 5 out of 8

**Q.** What about the “Rats responding with increased MV” value (conscious normal rats; 0.3 mg/kg IV) of the same compound?
**A.** 5 out of 8

**Q.** And the “Rats responding with increased ThP” value (conscious normal rats; 0.3 mg/kg IV)?
**A.** 5 out of 8

**Q.** And the “Bladder capacity (BC)” value (conscious normal rats; 0.3 mg/kg IV, not significant)?
**A.** 0.98 ± 0.21 mL

**Q.** What about the “Flow pressure (FP)” value (conscious normal rats; 0.3 mg/kg IV, not significant) of the same compound?
**A.** 34.1±8.8 cmH2O

**Q.** What about the “Micturition interval (MI)” value (conscious normal rats; 0.3 mg/kg IV, not significant) of the same compound?
**A.** 260 ± 69 s

**Q.** And the “Micturition volume (MV)” value (conscious normal rats; 0.3 mg/kg IV, not significant)?
**A.** 0.93 ± 0.21 mL

**Q.** And the “Threshold pressure (ThP)” value (conscious normal rats; 0.3 mg/kg IV, not significant)?
**A.** 16.5±2.2 cmH2O

**Q.** What about the “Residual volume (RV)” value (conscious normal rats; 0.3 mg/kg IV) of the same compound?
**A.** 0.01 ± 0.01 mL

**Q.** What about the “Basal pressure (BP)” value (conscious normal rats; 1 mg/kg IV) of the same compound?
**A.** 3.7±1.2 cmH2O

**Q.** And the “Micturition pressure (MP)” value (conscious normal rats; 1 mg/kg IV)?
**A.** 65.1±8.6 cmH2O

**Q.** And the “Rats responding with increased MI” value (conscious normal rats; 1 mg/kg IV)?
**A.** 3 out of 8

**Q.** What about the “Rats responding with increased MV” value (conscious normal rats; 1 mg/kg IV) of the same compound?
**A.** 6 out of 8

**Q.** What about the “Rats responding with increased ThP” value (conscious normal rats; 1 mg/kg IV) of the same compound?
**A.** 1 out of 8

**Q.** And the “Bladder capacity (BC)” value (conscious normal rats; 1 mg/kg IV, not significant)?
**A.** 0.91 ± 0.17 mL

**Q.** And the “Flow pressure (FP)” value (conscious normal rats; 1 mg/kg IV, not significant)?
**A.** 26.0±2.4 cmH2O

**Q.** What about the “Micturition interval (MI)” value (conscious normal rats; 1 mg/kg IV, not significant) of the same compound?
**A.** 251 ± 63 s

**Q.** What about the “Micturition volume (MV)” value (conscious normal rats; 1 mg/kg IV, not significant) of the same compound?
**A.** 0.90 ± 0.17 mL

**Q.** And the “Threshold pressure (ThP)” value (conscious normal rats; 1 mg/kg IV, not significant)?
**A.** 12.6±2.0 cmH2O

**Q.** And the “Residual volume (RV)” value (conscious normal rats; 1 mg/kg IV)?
**A.** 0.01 ± 0.01 mL

**Q.** What about the “Basal pressure (BP)” value (conscious normal rats; 3 mg/kg IV) of the same compound?
**A.** 9.0±4.3 cmH2O

**Q.** What about the “Micturition pressure (MP)” value (conscious normal rats; 3 mg/kg IV) of the same compound?
**A.** 87.3±18.9 cmH2O

**Q.** What about the “Rats responding with increased FP” value (conscious normal rats; 3 mg/kg IV) of the same compound?
**A.** 6 out of 8

**Q.** What about the “Rats responding with increased MI” value (conscious normal rats; 3 mg/kg IV) of the same compound?
**A.** 7 out of 8

**Q.** What about the “Rats responding with increased MV” value (conscious normal rats; 3 mg/kg IV) of the same compound?
**A.** 7 out of 8

**Q.** What about the “Rats responding with increased ThP” value (conscious normal rats; 3 mg/kg IV) of the same compound?
**A.** 7 out of 8

**Q.** What about the “Threshold pressure (ThP)” value (conscious normal rats; 3 mg/kg IV, ANOVA ns, paired t-test vs. baseline p=0.05) of the same compound?
**A.** 38.1±13.9 cmH2O

**Q.** And the “Flow pressure (FP)” value (conscious normal rats; 3 mg/kg IV, not significant)?
**A.** 62.3±18.4 cmH2O

**Q.** And the “Residual volume (RV)” value (conscious normal rats; 3 mg/kg IV)?
**A.** 0.02 ± 0.02 mL

**Q.** And the “Bladder capacity (BC)” value (conscious normal rats; 3 mg/kg IV, p<0.001 vs. baseline, p<0.005 vs. vehicle)?
**A.** 1.42 ± 0.18 mL

**Q.** And the “Micturition volume (MV)” value (conscious normal rats; 3 mg/kg IV, p<0.001 vs. baseline, p<0.01 vs. vehicle)?
**A.** 1.4 ± 0.2 mL

**Q.** What about the “Micturition interval (MI)” value (conscious normal rats; 3 mg/kg IV, p<0.02 vs. baseline) of the same compound?
**A.** 423 ± 63 s

**Q.** And the “Animals responding with an increase or decrease in FP” value (conscious normal rats; 0.3 and 1 mg/kg IV)?
**A.** 50%

**Q.** And the “Animals with a decrease in BP” value (conscious normal rats; all doses (0.3, 1, 3 mg/kg IV))?
**A.** 37.5-50 % of rats

**Q.** And the “Animals with an increase in BP” value (conscious normal rats; all doses (0.3, 1, 3 mg/kg IV))?
**A.** 25-37.5 % of rats

**Q.** What about the “Animals with no change in BP” value (conscious normal rats; all doses (0.3, 1, 3 mg/kg IV)) of the same compound?
**A.** 12.5-25 % of rats

**Q.** And the “Rats responding with increased BC” value (conscious normal rats; all doses (0.3, 1, 3 mg/kg IV))?
**A.** 6 out of 8
